In patent publication US20240269135A1, “METHODS OF TREATING BREAST CANCER” (ASTRAZENECA AB, priority 2021, published 2024):

Experiments:
[1] = system: patients with HER2-negative early breast cancer with BRCA1/2 germline pathogenic/likely pathogenic variants; test: OlympiA randomized double-blind phase 3 trial: invasive-disease-free, distant-disease-free and overall survival (incl. subgroup and sensitivity analyses); format: in vivo
From the text: We conducted a randomized double-blind phase 3 trial involving patients with HER2-negative early breast cancer with BRCA1/2 germline pathogenic/likely pathogenic variants (gBRCA-P/LP-variant), and high-risk clinico-pathological factors, after local treatment and (neo)adjuvant chemotherapy. […] The primary endpoint was invasive disease-free-survival.
The trial was designed and conducted as a collaborative partnership between the Breast International Group (BIG) and the sponsors NRG Oncology in the United States (US) and AstraZeneca (AZ) outside the US.
Patients eligible for the trial harbored a gBRCA-P/LP variant defined by local or central testing and high-risk, HER2-negative primary breast cancer following definitive local treatment and neoadjuvant or adjuvant chemotherapy. […] Details of gBRCA-P/LP variant screening, local and central gBRCA-P/LP variant testing, and concordance is provided in Figure S2 and Table S2/S3 in Supplementary Appendix. Any gBRCA-P/LP variant eligibility adjudication was conducted by the trial Genetics Advisory Committee. Local estrogen-receptor, progesterone-receptor and HER2 testing results were used for determination of the hormone-receptor status (cut-point for positive was ≥1%) for stratification and for hormone-receptor-positive specific stage criteria for eligibility (details for receptor status central review and concordance for all patients recruited outside China are provided in Supplementary Appendix Tables S4 and S5).
Patients were required to have completed all local therapy including radiotherapy, which interacts with PARP inhibition, at least 2 and not more than 12 weeks before study entry. Patients had completed at least 6 cycles of neoadjuvant or adjuvant chemotherapy containing anthracyclines, taxanes or both agents. Platinum chemotherapy was allowed. Adjuvant bisphosphonates and adjuvant endocrine therapy in patients with hormone-receptor positive disease were given according to institutional guidelines. No chemotherapy after surgery was allowed in patients who received neoadjuvant chemotherapy.
Patients were stratified by hormone-receptor status (positive versus negative), NACT versus ACT and use of platinum chemotherapy for current breast cancer (yes versus no).
Following randomization, medical history and physical examination were performed on a 4-weekly basis for 24 weeks and then 3-monthly through year 2, 6-monthly assessments in years 3 to 5 and annually thereafter. […] Patients had mammogram and/or breast magnetic-resonance-imaging annually.
After a first event, patients were followed for first distant relapse (if not the first event), CNS metastases, loco-regional relapses, contralateral breast cancer, second primary malignancies and survival status.
In accordance with the standardized definitions for efficacy end points (STEEP) system,^21 the primary endpoint of invasive disease-free survival was defined as the time from randomization until the date of first occurrence of one of the following events: ipsilateral invasive breast tumor, locoregional invasive disease, distant recurrence, contralateral invasive breast cancer, second primary invasive cancer or death from any cause. Patients without a documented invasive disease-free survival event were censored at the date they were last known to be disease-free.
Efficacy analyses were based on the intention-to-treat (ITT) population. Survival functions were estimated by Kaplan-Meier method. The stratified Cox proportional-hazards model was used to estimate the hazard ratio and confidence intervals, the comparison of survival between treatment arms was tested by stratified log-rank test. […] Safety was assessed in the population who received at least one dose of study medication.

[2] = system: metastatic HER2-negative breast cancer patients with gBRCA-P/LP variants; details: 45% received capecitabine as comparator; cited from earlier work
[3] = ITT, olaparib-group N=921, Kaplan-Meier, median follow-up 2.5 years
[4] = all deaths, ITT, olaparib N=921
[5] = percentage of the 59 deaths in the olaparib-group

Which results are given for `O=C(c1cc(Cc2n[nH]c(=O)c3ccccc23)ccc1F)N1CCN(C(=O)C2CC2)CC1` [Olaparib, 4-[(3-{[4-(cyclopropane-carbonyl)piperazine-1-yl]carbonyl}-4-fluorophenyl)methyl]-2H-phthalazin-1-one]?
Deaths without a prior IDFS event ([1]; ITT, olaparib N=921): 2 no. of patients; IDFS events ([1]; ITT, olaparib N=921): 106 no. of patients; Total number of deaths ([1]; ITT, olaparib N=921): 59 no. of patients; 3-year distant-disease-free survival [1, 3]: 87.5%; 3-year invasive-disease-free survival [1, 3]: 85.9%; difference in 3-year distant-disease-free survival, olaparib vs placebo ([1]; ITT, 95% CI 3.0%, 11.1%): 7.1%; difference in 3-year invasive-disease-free survival, olaparib vs placebo ([1]; ITT, 95% CI 4.5%, 13.0%): 8.8%; Invasive disease free survival Events (%) ([1]; Overall): 106 (11.5)/178 (19.5) events (%); Primary cause of death: Adverse event [1, 4]: 1 no. of patients; Primary cause of death: Breast cancer [1, 4]: 55 no. of patients; Primary cause of death: Other [1, 4]: 3 no. of patients; Primary cause of death: Adverse event [1, 5]: 1.7%; Primary cause of death: Breast cancer [1, 5]: 93.2%; Primary cause of death: Other [1, 5]: 5.1%; Invasive disease free survival Events (%) ([1]; subgroup Age 50-64 years at randomisation): 22 (11.4)/41 (19.5) events (%); Invasive disease free survival Events (%) ([1]; subgroup Age < 50 years at randomisation): 79 (11.3)/133 (19.8) events (%); Invasive disease free survival Events (%) ([1]; subgroup Age ≥ 65 years at randomisation): 5 (17.2)/4 (12.5) events (%); Invasive disease free survival Events (%) ([1]; subgroup BRCA1/2 both with no prior platinum therapy for current breast cancer): 0 (0.0)/0 (0.0) events (%); Invasive disease free survival Events (%) ([1]; subgroup BRCA1/2 both with prior platinum therapy for current breast cancer): 0/0 (0.0) events (%); Invasive disease free survival Events (%) ([1]; subgroup BRCA1 with no prior platinum therapy for current breast cancer): 43 (11.2)/91 (24.0) events (%); Invasive disease free survival Events (%) ([1]; subgroup BRCA1 with prior platinum therapy for current breast cancer): 27 (15.5)/35 (19.6) events (%); Invasive disease free survival Events (%) ([1]; subgroup BRCA2 with no prior platinum therapy for current breast cancer): 18 (10.2)/30 (17.8) events (%); Invasive disease free survival Events (%) ([1]; subgroup BRCA2 with prior platinum therapy for current breast cancer): 4 (7.5)/8 (20.0) events (%); Invasive disease free survival Events (%) ([1]; subgroup BRCA variant type: BRCA1): 70 (12.5)/126 (22.6) events (%); Invasive disease free survival Events (%) ([1]; subgroup BRCA variant type: BRCA1/2): 0 (0.0)/0 (0.0) events (%); Invasive disease free survival Events (%) ([1]; subgroup BRCA variant type: BRCA2): 22 (9.6)/38 (18.2) events (%); Invasive disease free survival Events (%) ([1]; subgroup Bilateral oophorectomy prior to first dose): 14 (7.4)/38 (21.6) events (%); Invasive disease free survival Events (%) ([1]; subgroup Ethnicity: Hispanic or Latino): 7 (20.6)/7 (29.2) events (%); Invasive disease free survival Events (%) ([1]; subgroup Ethnicity: Not Hispanic or Latino): 88 (10.9)/153 (18.8) events (%); Invasive disease free survival Events (%) ([1]; subgroup Ethnicity: Not known, not recorded or refused): 11 (13.4)/18 (22.8) events (%); Invasive disease free survival Events (%) ([1]; subgroup Geographic region: Asia Pacific and South Africa): 30 (9.9)/55 (17.2) events (%); Invasive disease free survival Events (%) ([1]; subgroup Geographic region: Europe): 62 (12.9)/95 (21.0) events (%); Invasive disease free survival Events (%) ([1]; subgroup Geographic region: North America): 11 (9.0)/23 (17.4) events (%); Invasive disease free survival Events (%) ([1]; subgroup Geographic region: South America): 3 (18.8)/5 (41.7) events (%); Invasive disease free survival Events (%) ([1]; subgroup HR status: HR+/HER2−): 19 (11.3)/25 (15.9) events (%); Invasive disease free survival Events (%) ([1]; subgroup HR status: TNBC): 87 (11.6)/153 (20.2) events (%); Invasive disease free survival Events (%) ([1]; subgroup HR+/HER2− with adjuvant chemotherapy): 6 (9.4)/5 (7.7) events (%); Invasive disease free survival Events (%) ([1]; subgroup HR+/HER2− with neoadjuvant chemotherapy): 13 (12.5)/20 (21.7) events (%); Invasive disease free survival Events (%) ([1]; subgroup Jewish descent: No, not of Ashkenazi descent): 100 (11.4)/169 (19.3) events (%); Invasive disease free survival Events (%) ([1]; subgroup Jewish descent: Yes, of Ashkenazi descent): 6 (14.6)/9 (25.0) events (%); Invasive disease free survival Events (%) ([1]; subgroup No bilateral oophorectomy prior to first dose): 92 (12.6)/140 (18.9) events (%); Invasive disease free survival Events (%) ([1]; subgroup No prior platinum/ACT): 28 (7.3)/57 (14.8) events (%); Invasive disease free survival Events (%) ([1]; subgroup No prior platinum/HR+/HER2−): 13 (9.3)/22 (16.4) events (%); Invasive disease free survival Events (%) ([1]; subgroup No prior platinum/NACT): 44 (15.1)/78 (26.8) events (%); Invasive disease free survival Events (%) ([1]; subgroup No prior platinum/TNBC): 59 (11.1)/113 (20.8) events (%); Invasive disease free survival Events (%) ([1]; subgroup Primary Study Database: Breast International Group (BIG)): 95 (11.7)/160 (19.9) events (%); Invasive disease free survival Events (%) ([1]; subgroup Primary Study Database: NRG Oncology (US)): 11 (9.9)/18 (16.5) events (%); Invasive disease free survival Events (%) ([1]; subgroup Prior Chemo: Adjuvant): 36 (7.8)/61 (13.4) events (%); Invasive disease free survival Events (%) ([1]; subgroup Prior Chemo: Neoadjuvant): 70 (15.2)/117 (25.4) events (%); Invasive disease free survival Events (%) ([1]; subgroup Prior Platinum: No): 72 (10.7)/135 (20.0) events (%); Invasive disease free survival Events (%) ([1]; subgroup Prior Platinum: Yes): 34 (13.8)/43 (18.0) events (%); Invasive disease free survival Events (%) ([1]; subgroup Prior platinum/ACT): 8 (10.3)/4 (5.7) events (%); Invasive disease free survival Events (%) ([1]; subgroup Prior platinum/HR+/HER2−): 6 (21.4)/3 (13.0) events (%); Invasive disease free survival Events (%) ([1]; subgroup Prior platinum/NACT): 26 (15.4)/39 (23.1) events (%); Invasive disease free survival Events (%) ([1]; subgroup Prior platinum/TNBC): 28 (12.8)/40 (18.5) events (%); Invasive disease free survival Events (%) ([1]; subgroup Race: Asian): 25 (9.7)/46 (16.9) events (%); Invasive disease free survival Events (%) ([1]; subgroup Race: Black/African-American): 4 (21.1)/5 (17.2) events (%); Invasive disease free survival Events (%) ([1]; subgroup Race: Other): 2 (11.8)/3 (20.0) events (%); Invasive disease free survival Events (%) ([1]; subgroup Race: White): 75 (12.0)/124 (20.7) events (%); Invasive disease free survival Events (%) ([1]; subgroup TNBC adjuvant cohort, pN status at surgery: Node negative): 13 (6.4)/22 (11.5) events (%); Invasive disease free survival Events (%) ([1]; subgroup TNBC adjuvant cohort, pN status at surgery: Node positive): 15 (8.6)/31 (17.5) events (%); Invasive disease free survival Events (%) ([1]; subgroup TNBC with adjuvant chemotherapy): 30 (7.6)/56 (14.4) events (%); Invasive disease free survival Events (%) ([1]; subgroup TNBC with neoadjuvant chemotherapy): 57 (16.1)/97 (26.4) events (%); Invasive disease free survival Events (%) ([1]; subgroup breast surgery prior to randomisation: Breast conservation): 20 (9.0)/46 (19.2) events (%); Invasive disease free survival Events (%) ([1]; subgroup post neoadjuvant group: CPS + EG score of 2, 3 or 4): 55 (13.8)/96 (24.8) events (%); Invasive disease free survival Events (%) ([1]; subgroup post neoadjuvant group: CPS + EG score of 5 or 6): 11 (50.0)/10 (66.7) events (%); Invasive disease free survival Events (%) ([1]; subgroup prior chemotherapy: Anthracycline and taxane regimen): 101 (11.6)/168 (19.8) events (%); Invasive disease free survival Events (%) ([1]; subgroup prior chemotherapy: Anthracycline regimen (without taxane)): 0 (0.0)/2 (15.4) events (%); Invasive disease free survival Events (%) ([1]; subgroup prior chemotherapy: Taxane regimen (without Anthracycline)): 5 (11.6)/8 (15.4) events (%); progression-free-survival versus chemotherapy [2]: more effective than chemotherapy
